# Experimental data from PMC7073886, “Structure–Bioactivity Relationships of Lapatinib Derived Analogs against Schistosoma mansoni” (ACS Medicinal Chemistry Letters, 2020).
# Tests used:
# Rat hepatocyte Clint = assay type: in vitro ADME; settings: rat hepatocytes, intrinsic clearance; read-out: RH CLint
# [1] = Log D7.4 shake-flask octanol-water; assay type: physicochemical; settings: pH 7.4
# Method: Log D7.4. Shake-flask octanol-water distribution coefficient was determined at pH 7.4 (Log D7.4). The aqueous solution used is 10 mM sodium phosphate pH 7.4 buffer. The method has been validated for Log D7.4 ranging from -2 to 5.0.
# Human Plasma Protein Binding (PPB). PPB was determined using equilibrium dialysis (RED device) to separate free from bound compound. The amount of compound in plasma (10 µM initial concentration) and in dialysis buffer (pH 7.4 phosphate buffer) was measured by LC-MS/MS after equilibration at 37 °C in a dialysis chamber. The fraction unbound (fu) is reported.
# Human Liver Microsomal Clint. In vitro intrinsic clearance was determined from human liver microsomes using a standard approach.11 Following incubation and preparation, the samples were analyzed using […]
# Rat Hepatocyte Clint. In vitro intrinsic clearance was determined from rat hepatocytes using a standard approach.11 Following incubation and preparation, the samples were analyzed using LC/MS/MS. Refined […]
# Calculated LogP and LogD values. Both LogP and LogD predictions are based on a modified version of the method12 where the predicted partition coefficients are composed of the molecules’ atomic increments.
# General Chemistry. All starting materials were commercially obtained and were used without further purification, unless specified. Reaction solvents were purified by passage through alumina columns on a purification system manufactured by Innovative Technology (Newburyport, MA). NMR spectra were obtained on Varian NMR systems, operating at 400 or 500 MHz for 1 H acquisitions. LCMS analysis was performed using a Waters AllianceHT e2795 reverse phase HPLC (Waters SunFire C18 4.6 × 50 mm, 3.5 μm column), with a Waters 2996 photodiode array detector scanning from 210 nm to 600 nm, and Waters Micromass ZQ detector (electrospray ionization). Where required, final compounds were purified by preparative reverse phase HPLC (columns Waters Symmetry RP8 30 × 50 mm, 5 μm column, or OBD RP18 30 × 50 mm, 5 μm), with a single wavelength UV−visible detector and Waters Micromass ZQ (electrospray ionization).
# adult S. mansoni = experiment: Phenotypic screen of adult S. mansoni worms, severity scores and descriptors; assay type: cell-based, Schistosoma mansoni; settings: for Descriptors (10 µM) 1 h / Severity Scores (10 μM) 1 h / Descriptors (10 µM) 5 h / Severity Scores (10 μM) 5 h / Descriptors (10 µM) 24 h / Severity Scores (10 μM) 24 h / Descriptors (10 µM) 48 h / Severity Scores (10 μM) 48 h: adult S. mansoni; for Descriptors (10 µM) 1 h / Descriptors (10 µM) 5 h / Descriptors (10 µM) 24 h / Descriptors (10 µM) 48 h: phenotypic descriptors; for Severity Scores (10 μM) 1 h / Severity Scores (10 μM) 5 h / Severity Scores (10 μM) 24 h / Severity Scores (10 μM) 48 h: scale 0 (no activity) to 4 (maximal activity); for bioactivity against adult S. mansoni: adult schistosomes; for Severity Scores (10 μM) 1 h / Severity Scores (10 μM) 5 h / Severity Scores (10 μM) 24 h / Severity Scores (10 μM) 48 h / bioactivity against adult S. mansoni: 10 μM
# Text: Because the schistosome parasite can present multiple and dynamic phenotypic responses to chemical insult,[16] we employ a constrained nomenclature of descriptors to describe the changes in the parasite as a function of time and concentration (e.g., motility, density, and shape; and in the case of the adult parasite, an inability to adhere to the bottom of the assay dish). These descriptors are converted into severity scores on a scale of 0 (green)–4 (severest/red) that allow for partially quantitative comparisons of compound effects.[1]−[19] […] The descriptors themselves and their respective scores are detailed in the Supporting Information, Table S1. Severity score data are presented in the results (with the corresponding descriptors detailed in the Supporting Information, Tables S2–S8), and eight new analogs developed and synthesized in support of this effort are described. Finally, absorption, distribution, metabolism and excretion (ADME) data of all compounds presented in this work are reported in the Supporting Information, Table S15.
# Table S1. Descriptors and associated severity scores used for S. mansoni adults.
# R (rounded or shape altered 1
# On sides (adults unable to 1
# Shrunk (adults are shorter 1
# surface (tegument) of adults)
# dfailed to create analytical method
# Maintenance of the Schistosoma mansoni life cycle (NMRI isolate), the preparation of adult worms (≥ 42-
# days-old), and their co-incubation with test compounds were as described.7-9 Phenotypic responses were
# visually recorded using a constrained nomenclature and converted to severity scores on a scale from zero
# (no activity) to 4 (maximal activity).8, 9 Use of hamsters for maintaining the S. mansoni life-cycle was
# approved by the Institutional Animal Care and Use Committee of the University of California San Diego.
# The human myelomonocytic cell line THP -1 was grown at 37 °C and 5% CO2 in RPMI-1640 supplemented
# with 10% iFBS, 2 mM glutamate, 100 U/mL penicillin and […] streptomycin.
# Drug toxicity to HepG2 cells .10 HepG2 cells line were obtained from the American Type Culture
# Collection and cultured in Minimal Essential Medium (MEM) supplemented with 0.19% sodium
# bicarbonate, 10% Fetal Bovine Serum, 2 mM L -glutamine, 0.1 mM MEM non-essential amino, 0.009
# mg/mL insulin, 1.76 mg/mL bovine serum albumin. The viability of the cells was measured using the MTT
# (thiazolyl blue reduction) method. Briefly, ninety -six-well plates were seeded with 2.5 × 10^4 cells/well in
# 170 ml of culture medium and incubated overnight in 5% CO 2 at 37 °C. Cells were exposed to different
# experimental compounds in DMSO. After 48 hours incubation, the viability of the cells was assessed using
# MTT (thiazolyl blue reduction) as a dose response assay (11 two -fold serial dilutions) to obtain a calculated
# IC50 determination. 4-Azaindolo[2,1-b]quinazoline-6,12-dione is used as a toxicity positive control and
# each assay plate includes the following 3 additional controls: a) background control: no cells and no drug
# was added, b) target control: cells added but no drugs, and c) DMSO control: same as the target control
# except the culture media contains 0.6% DMSO. Absorbance was determined in all wells using a Perkin
# Elmer, Ensight plate reader. The fifty percent inhibitory concentrations (IC50’s) were determined using
# GraphPad Prism nonlinear regr ession (sigmoidal dose -response, variable slope) equation .
# ADME Experiment Protocols
# Aqueous pH 7.4 Solubility. Compounds were dried down from 10 mM DMSO solutions using centrifugal
# evaporation technique. Phosphate buffer (0.1 M pH 7.4) was added and StirStix were inserted in the glass
# vials, with shaking then performed at a constant temperature of 25 °C for 20 -24 h. This step was followed
# by double centrifugation with a tip wash in between, to ensure that no residues of the dried compounds
# interfere. The solutions were diluted before analysis and quantification using LC/MS/MS was performed.
Compound,hepatocyte CLint (Rat hepatocyte Clint) [µL/min/1e6 cells],logD [1],Descriptors (10 µM) 1 h (adult S. mansoni),Severity Scores (10 μM) 1 h (adult S. mansoni),Descriptors (10 µM) 5 h (adult S. mansoni),Severity Scores (10 μM) 5 h (adult S. mansoni),Descriptors (10 µM) 24 h (adult S. mansoni),Severity Scores (10 μM) 24 h (adult S. mansoni),Descriptors (10 µM) 48 h (adult S. mansoni),Severity Scores (10 μM) 48 h (adult S. mansoni),bioactivity against adult S. mansoni (adult S. mansoni)
O=C(O)CN1CCN(c2ncc(-c3ccc4c(Nc5cnccn5)ccnc4c3)cn2)CC1 [3b],8.9,0.7,none,0,none,0,none,0,none,0,no bioactivity
CN1C[C@H]2C[C@@H]1CN2c1ncc(-c2ccc3c(Nc4cnccn4)ccnc3c2)cn1 [4a],17,2.2,none,0,none,0,,1,,1,minimal bioactivity was observed after 48 h
CCCN1CCN(c2ncc(-c3ccc4c(Nc5cnccn5)ccnc4c3)cn2)CC1 [4c],45,4.2,none,0,,1,"On sides, S",2,,4,activity after 5 h
CN1CCCN(c2ncc(-c3ccc4c(Nc5cnccn5)ccnc4c3)cn2)CC1 [4d],54,2.6,none,0,none,0,none,0,none,0,complete loss in activity
CCN1CCCN(c2ncc(-c3ccc4c(Nc5cnccn5)ccnc4c3)cn2)CC1 [4e],30,2.7,none,0,none,0,none,0,none,0,
Cc1cnc(Nc2ccnc3cc(-c4cnc(N5CCCN(C)CC5)nc4)ccc23)cn1 [5b],24,2.9,none,0,none,0,"Dark, S, on sides",3,,4,bioactivity recorded after 24 h
COc1ccc(NC(=O)c2ccc(-c3cnc(N4CCCN(C)CC4)nc3)cc2O)cc1Cl [7b],120,3.4,none,0,,1,,2,,4,minimal bioactivity after 5 h and potent activity after 48 h
CN1CCN(c2ncc(-c3ccc4c(NC5CCOCC5)ccnc4c3)cn2)CC1 [S1d],,1.7,none,0,none,0,none,0,none,0,no significant bioactivity
CN1CCN(c2ncc(-c3ccc4c(Nc5cnccn5)ccnc4c3)cn2)CC1 [compound 3],,,none,0,none,0,none,0,none,0,no bioactivity
